From patent US11685746B2, “Heteroaryl compounds for treating Huntington's disease” (PTC THERAPEUTICS, INC., priority 2018, dated 2023)

The molecules below were run on Endogenous Huntingtin Protein (assay: Endogenous Huntingtin Protein Assay (MSD plates, MW1 or MAB2166 capture antibody)). Settings: Table 1.
Assay type: cell-based
Procedure, shortened: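 Sandwich MSD immunoassay: plates were coated overnight at 4° C with MW1 (expanded polyQ) or MAB2166 capture antibody at 1 μg/mL, then blocked with 5% BSA. Samples were bound overnight at 4° C, followed by rabbit mAb #5656S and SULFO-TAG anti-rabbit detection, each at 0.25 μg/mL for 1 h at room temperature. Signal was read by electrochemiluminescence.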

Compound | IC50 [nM]
CN(c1nc2sc(-c3cnc(-n4cccn4)cn3)nc2s1)C1CC(C)(C)NC(C)(C)C1 [Compound 105, N-methyl-5-[5-(1H-pyrazol-1-yl)pyrazin-2-yl]-N-(2,2,6,6-tetramethylpiperidin-4-yl)[1,3]thiazolo[5,4-d][1,3]thiazol-2-amine] | 500 to 1000
CN(c1nc2sc(-c3ccc(-c4cn[nH]c4)c4cn[nH]c34)nc2s1)C1CC(C)(C)NC(C)(C)C1 [Compound 107, N-methyl-5-[4-(1H-pyrazol-4-yl)-1H-indazol-7-yl]-N-(2,2,6,6-tetramethylpiperidin-4-yl)[1,3]thiazolo[5,4-d][1,3]thiazol-2-amine] | ≤ 100
CC1CC(N(C)c2nc3sc(-c4ccc(-c5cn[nH]c5)c5cn[nH]c45)nc3s2)CCN1C (stereo not shown) [Compound 108, N-(1,2-dimethylpiperidin-4-yl)-N-methyl-5-[4-(1H-pyrazol-4-yl)-1H-indazol-7-yl][1,3]thiazolo[5,4-d][1,3]thiazol-2-amine] | ≤ 100
C[C@H]1C[C@H](Oc2nc3sc(-c4ncc(-c5cn[nH]c5)c5cc[nH]c45)nc3s2)CCN1 [Compound 109, 7-(5-{[(2S,4R)-2-methylpiperidin-4-yl]oxy}[1,3]thiazolo[5,4-d][1,3]thiazol-2-yl)-4-(1H-pyrazol-4-yl)-1H-pyrrolo[2,3-c]pyridine] | ≤ 100
CN(c1nc2sc(-c3ccc(-c4cn[nH]c4)c4cn[nH]c34)nc2s1)[C@H]1C[C@]2(C)CC[C@](C)(C1)N2 [Compound 110, N-[(1R,3s,5S)-1,5-dimethyl-8-azabicyclo[3.2.1]octan-3-yl]-N-methyl-5-[4-(1H-pyrazol-4-yl)-1H-indazol-7-yl][1,3]thiazolo[5,4-d][1,3]thiazol-2-amine] | ≤ 100
CN(c1nc2sc(-c3ccc(Br)c4cn[nH]c34)nc2s1)[C@H]1C[C@]2(C)CC[C@](C)(C1)N2 [Compound 111, 5-(4-bromo-1H-indazol-7-yl)-N-[(1R,3s,5S)-1,5-dimethyl-8-azabicyclo[3.2.1]octan-3-yl]-N-methyl[1,3]thiazolo[5,4-d][1,3]thiazol-2-amine] | ≤ 100
CC1CC(N(C)c2nc3sc(-c4ccc(-c5cn[nH]c5)c5nc[nH]c45)nc3s2)CCN1C (stereo not shown) [Compound 112, N-(1,2-dimethylpiperidin-4-yl)-N-methyl-5-[4-(1H-pyrazol-4-yl)-1H-benzimidazol-7-yl][1,3]thiazolo[5,4-d][1,3]thiazol-2-amine] | ≤ 100
CN(c1nc2sc(-c3ncc(-c4cn[nH]c4)c4ccn(C)c34)nc2s1)C1CCNCC1 [Compound 113, N-methyl-5-[1-methyl-4-(1H-pyrazol-4-yl)-1H-pyrrolo[2,3-c]pyridin-7-yl]-N-(piperidin-4-yl)[1,3]thiazolo[5,4-d][1,3]thiazol-2-amine] | 100 to 500
CN(c1nc2sc(-c3cnc(-c4cn[nH]c4)cn3)nc2s1)[C@H]1C[C@]2(C)CC[C@](C)(C1)N2C [Compound 114, N-methyl-5-[5-(1H-pyrazol-4-yl)pyrazin-2-yl]-N-[(1R,3s,5S)-1,5,8-trimethyl-8-azabicyclo[3.2.1]octan-3-yl][1,3]thiazolo[5,4-d][1,3]thiazol-2-amine] | ≤ 100
CC1CC(N(C)c2nc3sc(-c4ncc(-c5cn[nH]c5)c5[nH]cnc45)nc3s2)CCN1C (stereo not shown) [Compound 115, N-(1,2-dimethylpiperidin-4-yl)-N-methyl-5-[7-(1H-pyrazol-4-yl)-1H-imidazo[4,5-c]pyridin-4-yl][1,3]thiazolo[5,4-d][1,3]thiazol-2-amine] | ≤ 100
CN(c1nc2sc(-c3cnc(Br)n4ccnc34)nc2s1)C1CCNCC1 [Compound 116, 5-(5-bromoimidazo[1,2-c]pyrimidin-8-yl)-N-methyl-N-(piperidin-4-yl)[1,3]thiazolo[5,4-d][1,3]thiazol-2-amine] | 500 to 1000
CN(c1nc2sc(-c3ncc(Br)n4ccnc34)nc2s1)C1CCNCC1 [Compound 117, 5-(5-bromoimidazo[1,2-a]pyrazin-8-yl)-N-methyl-N-(piperidin-4-yl)[1,3]thiazolo[5,4-d][1,3]thiazol-2-amine] | 1000 to 3000
CC1CC(N(C)c2nc3sc(-c4ccc(-n5nccn5)c5cc[nH]c45)nc3s2)CCN1C (stereo not shown) [Compound 118, N-(1,2-dimethylpiperidin-4-yl)-N-methyl-5-[4-(2H-1,2,3-triazol-2-yl)-1H-indol-7-yl][1,3]thiazolo[5,4-d][1,3]thiazol-2-amine] | 500 to 1000
CC1CC(N(C)c2nc3sc(-c4ccc(Cl)c5cc[nH]c45)nc3s2)CCN1C (stereo not shown) [Compound 119, 5-(4-chloro-1H-indol-7-yl)-N-(1,2-dimethylpiperidin-4-yl)-N-methyl[1,3]thiazolo[5,4-d][1,3]thiazol-2-amine] | 1000 to 3000
C[C@H]1C[C@@H](Oc2nc3sc(-c4ncc(-c5cn[nH]c5)c5cc[nH]c45)nc3s2)CCN1 [Compound 120, 7-(5-{[(2S,4S)-2-methylpiperidin-4-yl]oxy}[1,3]thiazolo[5,4-d][1,3]thiazol-2-yl)-4-(1H-pyrazol-4-yl)-1H-pyrrolo[2,3-c]pyridine] | ≤ 100
CC(C)N1CCC(N(C)c2nc3sc(-c4ncc(-c5cn[nH]c5)c5cc[nH]c45)nc3s2)CC1 [Compound 121, N-methyl-N-[1-(propan-2-yl)piperidin-4-yl]-5-[4-(1H-pyrazol-4-yl)-1H-pyrrolo[2,3-c]pyridin-7-yl][1,3]thiazolo[5,4-d][1,3]thiazol-2-amine] | ≤ 100

Compound | IC50 [nM]
CCN1CCC(N(C)c2nc3sc(-c4ncc(-c5cn[nH]c5)c5cc[nH]c45)nc3s2)CC1 [Compound 122, N-(1-ethylpiperidin-4-yl)-N-methyl-5-[4-(1H-pyrazol-4-yl)-1H-pyrrolo[2,3-c]pyridin-7-yl][1,3]thiazolo[5,4-d][1,3]thiazol-2-amine] | ≤ 100
CN(c1nc2sc(-c3ncc(-c4cn[nH]c4)c4cc[nH]c34)nc2s1)C1CCN2CCCC2C1 (stereo not shown) [Compound 123, N-methyl-N-{5-[4-(1H-pyrazol-4-yl)-1H-pyrrolo[2,3-c]pyridin-7-yl][1,3]thiazolo[5,4-d][1,3]thiazol-2-yl}octahydroindolizin-7-amine] | ≤ 100
CC1CC(N(C)c2nc3sc(-c4ncc(Br)c5cc[nH]c45)nc3s2)CCN1C (stereo not shown) [Compound 124, 5-(4-bromo-1H-pyrrolo[2,3-c]pyridin-7-yl)-N-(1,2-dimethylpiperidin-4-yl)-N-methyl[1,3]thiazolo[5,4-d][1,3]thiazol-2-amine] | 100 to 500
CC1CC(N(C)c2nc3sc(-c4ccc(-c5cn[nH]c5)c5cc[nH]c45)nc3s2)CCN1C (stereo not shown) [Compound 125, N-(1,2-dimethylpiperidin-4-yl)-N-methyl-5-[4-(1H-pyrazol-4-yl)-1H-indol-7-yl][1,3]thiazolo[5,4-d][1,3]thiazol-2-amine] | ≤ 100
CC1CC(N(C)c2nc3sc(-c4ccc(-c5cn[nH]c5)cn4)nc3s2)CCN1C (stereo not shown) [Compound 126, N-(1,2-dimethylpiperidin-4-yl)-N-methyl-5-[5-(1H-pyrazol-4-yl)pyridin-2-yl][1,3]thiazolo[5,4-d][1,3]thiazol-2-amine] | 100 to 500
CC1CC(N(C)c2nc3sc(-c4ccc(-c5cn[nH]c5)nc4)nc3s2)CCN1C (stereo not shown) [Compound 127, N-(1,2-dimethylpiperidin-4-yl)-N-methyl-5-[6-(1H-pyrazol-4-yl)pyridin-3-yl][1,3]thiazolo[5,4-d][1,3]thiazol-2-amine] | 1000 to 3000
CN(c1nc2sc(-c3ccc(-c4cn[nH]c4)c4cc[nH]c34)nc2s1)C1CC(C)(C)NC(C)(C)C1 [Compound 128, N-methyl-5-[4-(1H-pyrazol-4-yl)-1H-indol-7-yl]-N-(2,2,6,6-tetramethylpiperidin-4-yl)[1,3]thiazolo[5,4-d][1,3]thiazol-2-amine] | ≤ 100
CC1CC(N(C)c2nc3sc(-c4ncc(-c5cn[nH]c5)cn4)nc3s2)CCN1C (stereo not shown) [Compound 129, N-(1,2-dimethylpiperidin-4-yl)-N-methyl-5-[5-(1H-pyrazol-4-yl)pyrimidin-2-yl][1,3]thiazolo[5,4-d][1,3]thiazol-2-amine] | 100 to 500
CC1CC(N(C)c2nc3sc(-c4cnc(-c5cn[nH]c5)nc4)nc3s2)CCN1C (stereo not shown) [Compound 130, N-(1,2-dimethylpiperidin-4-yl)-N-methyl-5-[2-(1H-pyrazol-4-yl)pyrimidin-5-yl][1,3]thiazolo[5,4-d][1,3]thiazol-2-amine] | 1000 to 3000
CC1CC(N(C)c2nc3sc(-n4cnc(-c5cn[nH]c5)cc4=O)nc3s2)CCN1C (stereo not shown) [Compound 131, 3-{5-[(1,2-dimethylpiperidin-4-yl)(methyl)amino][1,3]thiazolo[5,4-d][1,3]thiazol-2-yl}-6-(1H-pyrazol-4-yl)pyrimidin-4(3H)-one] | 100 to 500
CC1CC(N(C)c2nc3sc(-c4cnc(-c5cn[nH]c5)cn4)nc3s2)CCN1C (stereo not shown) [Compound 132, N-(1,2-dimethylpiperidin-4-yl)-N-methyl-5-[5-(1H-pyrazol-4-yl)pyrazin-2-yl][1,3]thiazolo[5,4-d][1,3]thiazol-2-amine] | 100 to 500
CN(c1nc2sc(-c3ccc(-c4cn[nH]c4)cn3)nc2s1)C1CC(C)(C)NC(C)(C)C1 [Compound 133, N-methyl-5-[5-(1H-pyrazol-4-yl)pyridin-2-yl]-N-(2,2,6,6-tetramethylpiperidin-4-yl)[1,3]thiazolo[5,4-d][1,3]thiazol-2-amine] | ≤ 100
c1cc2c(-c3cn[nH]c3)cnc(-c3nc4sc(N5CCC56CCCNC6)nc4s3)c2[nH]1 (stereo not shown) [Compound 134, 7-[5-(1,6-diazaspiro[3.5]nonan-1-yl)[1,3]thiazolo[5,4-d][1,3]thiazol-2-yl]-4-(1H-pyrazol-4-yl)-1H-pyrrolo[2,3-c]pyridine] | ≤ 100
CN(c1nc2sc(-c3ccc(-c4cn[nH]c4)nc3)nc2s1)C1CC(C)(C)NC(C)(C)C1 [Compound 135, N-methyl-5-[6-(1H-pyrazol-4-yl)pyridin-3-yl]-N-(2,2,6,6-tetramethylpiperidin-4-yl)[1,3]thiazolo[5,4-d][1,3]thiazol-2-amine] | 100 to 500
CN(c1nc2sc(-c3ncc(-c4cn[nH]c4)c4[nH]cnc34)nc2s1)C1CC(C)(C)NC(C)(C)C1 [Compound 136, N-methyl-5-[7-(1H-pyrazol-4-yl)-1H-imidazo[4,5-c]pyridin-4-yl]-N-(2,2,6,6-tetramethylpiperidin-4-yl)[1,3]thiazolo[5,4-d][1,3]thiazol-2-amine] | ≤ 100
